In patent US12410152B2, “Oxazole and thioazole-type cullin ring ubiquitin ligase compounds and uses thereof” (Proxygen GmbH, priority 2019, dated 2025):

Key:
KBM7 CUL4Amut cells = assay: Cell viability assay, KBM7 CUL4A mutant; type: cell-based, human; details: Table 2, data of FIG. 6; 3-day treatment; read-out: LC50 CUL4Amut
Experimental: (§1) KBM7 cells with the specified genetic backgrounds were grown in IMDM supplemented with 10% FBS and 1% penicillin/streptomycin (pen/strep). AsPC1, HCT116, NCI-H446 and 293T cells were grown in DMEM 10% FBS and 1% pen/strep. MV4; 11, Jurkat and Be (2) C cells were grown in RPMI 10% FBS 1% pen/strep. KBM7, AsPC1 and HCT116 cells expressing Cas9 were generated using the plasmid Lenti_Cas9_Blasti (Addgene #52962). The lentiviral plasmid lentiGuide-Puro (Addgene #52963) was used to express sgRNAs against the genes UBE2M (in KBM7-Cas9, AsPC1-Cas9 and HCT116-Cas9 cells), UBE2G1 (in KBM7-Cas9 cells) and […] (in KBM7-Cas9 cells). The lentiviral plasmid lentiGuide-Puro-IRES-mCherry (modified from Addgene #52963) was used to express sgRNAs against CUL4A (in KBM7-Cas9 cells). The lentiviral plasmid pLenti-PGK-Hygro-DEST-UBE2M was generated by Gateway cloning (empty destination vector Addgene #19066), and used to generate UBE2M^resc KBM7 cells.
Validating the previous results, a strong enrichment for cells transduced with UBE2Mtargeting sgRNAs was detected. […] The fact that Rbx1 was not detected in the initial experiment is likely explained by the fact that prolonged loss of RBX1 function is detrimental to cellular fitness. […] To understand if the tested compounds were uniquely dependent on CUL4B over CUL4A, a differential drug efficacy was assessed in dose ranging viability assays in KBM7 WT cells and isogenic clones deficient in either CUL4A, CUL4B, and UBE2G1. […]
KBM7^WT, mutant KBM7 clones (UBE2M^mut, UBE2M^resc, UBE2G1^mut CUL4A^mut, CUL4B^mut), and 3-day doxycycline pretreated KBM7^iCas9_sgDDB1 cells were seeded at a cell density of 50,000 cells/mL in 96-well plates with DMSO or drug, in triplicates. […] Cells were treated for 3 days, after which cell viability was assessed according to manufacturer's protocol (CellTiter Glo, Promega G7570). Survival curves and EC50 values were calculated by best-fit analysis of the log 10 drug concentration to fold change of drug-treated cells over DMSO-treated cells. […]

UBE2M mutant KBM7 cells = assay: cells; type: cell-based
Experimental: as §1, with “cells. […]” for “cells.”
Following this observation, it was rationalized that novel small molecule degraders can be identified in an unbiased manner, simply by searching for compounds that lose activity in the absence of UBE2M. 2000 small molecules, mostly of unknown function/target, were tested for their antiproliferative effects in human leukemia cells (KBM7). These cells were either transduced with a control sgRNA (KBM7WT), or with an sgRNA targeting UBE2M, leading to a hypomorph (deletion of six amino acids) with a functional impairment (UBE2Mmut).
Finally, a total of structurally similar analogs was tested to unravel structure-activity relationship of the identified molecules. To that end, their anti-cancer activity was assayed in WT cells, as well as KBM7 cells deficient in genes identified in the genome-wide CRISPR screens (UBE2M, CUL4B, UBE2G1). Moreover, the compounds were also tested in AsPC1 pancreatic cancer cells (WT or UBE2Mmut), MV4; 11 and Jurkat leukemia cells, Be (2) C neuroblastoma cells, and NCI-H446 lung cancer cells (Table 3 at the end of this document)
KBM7^WT, mutant KBM7 clones (UBE2M^mut, UBE2M^resc, UBE2G1^mut CUL4A^mut, CUL4B^mut), and 3-day doxycycline pretreated KBM7^iCas9_sgDDB1 cells were seeded at a cell density of 50,000 cells/mL in 96-well plates with DMSO or drug, in triplicates. Drugs used: IC020772.1/IC020772.1X, IC021313.2/IC021313.2X, T6938051/T6938051X or THZ531. Cells were treated for 3 days, after which cell viability was assessed according to manufacturer's protocol (CellTiter Glo, Promega G7570). Survival curves and EC50 values were calculated by best-fit analysis of the log 10 drug concentration to fold change of drug-treated cells over DMSO-treated cells. All survival assays included technical triplicates per sample, per experiment.

Compound | CC50 (KBM7 CUL4Amut cells) | CC50 (UBE2M mutant KBM7 cells)
O=C(CSc1nnc2c(n1)[nH]c1ccccc12)Nc1ccc(Cl)cn1 [IC020772.1] | 1.22 µM | 4.15 µM
Cc1ccc(C(=O)N2CSCC2C(=O)N=c2[nH]cc(C)s2)o1 (stereo not drawn) [Compound T6938051] | 2.26 µM | 7.04 µM
O=C(CSc1nc2ccccc2[nH]1)Nc1ccc(Cl)cn1 [IC021313.2] | 1.56 µM | 10.7 µM
